Experimental data reported in PubChem BioAssay AID2060624 (Molecular Pharmacology Branch, DTP, NCI, 2025).

Test system: 217524-143-R1-J4-PDC spheroids with HUVEC/MSC, viability
Assay: Anticancer human tumor 217524-143-R1-J4-PDC patient-derived pancreatic carcinoma cell line growth inhibition [CLK]
Settings: for IC50: curve of first compound; for viability, T/C: stronger effect = lower value
Outline: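 Patient-derived tumor cells grown as complex spheroids with HUVEC endothelial cells and mesenchymal stem cells, treated with drug combinations. Concentrations descend in half-log steps from near clinical Cmax, or from 10 microM if Cmax unknown.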

[1] = second compound 0.0316 µM, first compound 0.0316 µM
[2] = second compound 0.0316 µM, first compound 0.1 µM
[3] = second compound 0.0316 µM, first compound 0.316 µM
[4] = second compound 0.0316 µM, first compound 1 µM
[5] = second compound 0.0316 µM, first compound 3.16 µM
[6] = second compound 0.0316 µM, first compound 10 µM
[7] = second compound 0.1 µM, first compound 0.0316 µM
[8] = second compound 0.1 µM, first compound 0.1 µM
[9] = second compound 0.1 µM, first compound 0.316 µM
[10] = second compound 0.1 µM, first compound 1 µM
[11] = second compound 0.1 µM, first compound 3.16 µM
[12] = second compound 0.1 µM, first compound 10 µM
[13] = second compound 0.316 µM, first compound 0.0316 µM
[14] = second compound 0.316 µM, first compound 0.1 µM
[15] = second compound 0.316 µM, first compound 0.316 µM
[16] = second compound 0.316 µM, first compound 1 µM
[17] = second compound 0.316 µM, first compound 3.16 µM
[18] = second compound 0.316 µM, first compound 10 µM
[19] = second compound 1 µM, first compound 0.0316 µM
[20] = second compound 1 µM, first compound 0.1 µM
[21] = second compound 1 µM, first compound 0.316 µM
[22] = second compound 1 µM, first compound 1 µM
[23] = second compound 1 µM, first compound 3.16 µM
[24] = second compound 1 µM, first compound 10 µM
[25] = second compound 3.16 µM, first compound 0.0316 µM
[26] = second compound 3.16 µM, first compound 0.1 µM
[27] = second compound 3.16 µM, first compound 0.316 µM
[28] = second compound 3.16 µM, first compound 1 µM
[29] = second compound 3.16 µM, first compound 3.16 µM
[30] = second compound 3.16 µM, first compound 10 µM
[31] = second compound 10 µM, first compound 0.0316 µM
[32] = second compound 10 µM, first compound 0.1 µM
[33] = second compound 10 µM, first compound 0.316 µM
[34] = second compound 10 µM, first compound 1 µM
[35] = second compound 10 µM, first compound 3.16 µM
[36] = second compound 10 µM, first compound 10 µM
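Further: spheroids exposed to agents for seven days before reading.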
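Wherever viability, T/C is given: 100% = DMSO vehicle control viability.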

`Nc1ccn(C2OC(CO)C(O)C2(F)F)c(=O)n1` (centres undefined) + CNC(=O)c1ccc(Nc2nc(OC3CCCC3)c3c(-c4ccc5nc(C)oc5c4)c[nH]c3n2)c(OC)c1 gave an IC50 (second compound 0.0316 µM) of 47 nM, an IC50 (second compound 0.1 µM) of less than 31.6 nM and an IC50 (second compound 0.316 µM) of less than 31.6 nM. It also gave an IC50 (second compound 1 µM) of less than 31.6 nM, an IC50 (second compound 3.16 µM) of less than 31.6 nM and an IC50 (second compound 10 µM) of less than 31.6 nM. It also gave a viability, T/C [1] of 60.1%, a viability, T/C [2] of 31% and a viability, T/C [3] of 25.2%. The viability, T/C [4] was 29.9%, the viability, T/C [5] was 30.4% and the viability, T/C [6] was 25.1%. It also gave a viability, T/C [7] of 35.3%, a viability, T/C [8] of 28.8% and a viability, T/C [9] of 20.8%. It also gave a viability, T/C [10] of 33.2%, a viability, T/C [11] of 29% and a viability, T/C [12] of 28.1%. For the same compound, the viability, T/C [13] was 28.9%, the viability, T/C [14] was 25.1% and the viability, T/C [15] was 18.5%. It also gave a viability, T/C [16] of 23.5%, a viability, T/C [17] of 20.6% and a viability, T/C [18] of 21.3%. It also gave a viability, T/C [19] of 24.8%, a viability, T/C [20] of 17.1% and a viability, T/C [21] of 13.6%. For the same compound, the viability, T/C [22] was 19.9%, the viability, T/C [23] was 13.3% and the viability, T/C [24] was 14.5%. It also gave a viability, T/C [25] of 21.8%, a viability, T/C [26] of 18.1% and a viability, T/C [27] of 11.2%. For the same compound, the viability, T/C [28] was 13.5%, the viability, T/C [29] was 14.3% and the viability, T/C [30] was 11.6%. It also gave a viability, T/C [31] of 23.4%, a viability, T/C [32] of 18.6% and a viability, T/C [33] of 12.8%. For the same compound, the viability, T/C [34] was 10.8%, the viability, T/C [35] was 13.8% and the viability, T/C [36] was 11.8%.

Compound `O=C(c1cc(Cc2n[nH]c(=O)c3ccccc23)ccc1F)N1CCN(C(=O)C2CC2)CC1` + CNC(=O)c1ccc(Nc2nc(OC3CCCC3)c3c(-c4ccc5nc(C)oc5c4)c[nH]c3n2)c(OC)c1 has an IC50 (second compound 0.0316 µM) greater than 10000 nM, an IC50 (second compound 0.1 µM) of less than 31.6 nM and an IC50 (second compound 0.316 µM) of less than 31.6 nM. It also gave an IC50 (second compound 1 µM) of less than 31.6 nM, an IC50 (second compound 3.16 µM) of less than 31.6 nM and an IC50 (second compound 10 µM) of less than 31.6 nM. For the same compound, the viability, T/C [1] was 83.2%, the viability, T/C [2] was 82.8% and the viability, T/C [3] was 95.6%. For the same compound, the viability, T/C [4] was 115%, the viability, T/C [5] was 109% and the viability, T/C [6] was 78.5%. For the same compound, the viability, T/C [7] was 44.3%, the viability, T/C [8] was 40.1% and the viability, T/C [9] was 45.6%. The viability, T/C [10] was 44.1%, the viability, T/C [11] was 46.2% and the viability, T/C [12] was 46.3%. For the same compound, the viability, T/C [13] was 37.4%, the viability, T/C [14] was 42.7% and the viability, T/C [15] was 35.4%. The viability, T/C [16] was 36.1%, the viability, T/C [17] was 38.7% and the viability, T/C [18] was 51.8%. For the same compound, the viability, T/C [19] was 29.4%, the viability, T/C [20] was 30.1% and the viability, T/C [21] was 28%. The viability, T/C [22] was 32.3%, the viability, T/C [23] was 24.2% and the viability, T/C [24] was 25.6%. It also gave a viability, T/C [25] of 27%, a viability, T/C [26] of 23.7% and a viability, T/C [27] of 27.8%. For the same compound, the viability, T/C [28] was 26.5%, the viability, T/C [29] was 28.4% and the viability, T/C [30] was 29.4%. For the same compound, the viability, T/C [31] was 24.7%, the viability, T/C [32] was 29.3% and the viability, T/C [33] was 23.4%. The viability, T/C [34] was 24.6%, the viability, T/C [35] was 30.7% and the viability, T/C [36] was 24.7%.
